“Also recorded” adds a separate entry of the source.

One assay concerns Sw620. Briefly: Inhibition of anchorage-independent tumor cell growth, Sw620. In kind it is cell-based. To be noted: Homo sapiens, SW-620, 336 h; Sw620, 14 days, soft agar. Here is the method:
(§1) HT1080 is a […] with a N-ras mutation. MIApaca-2 is a pancreatic carcinoma and Sw620 is a colonic carcinoma; each of these has a K-ras mutation. T24 is a bladder carcinoma with a H-ras mutation; and zH1 is a H-ras-transformed NIH/3T3 mouse fibroblast. Additional compounds have been tested and have yielded positive results in these organ-specific or ras-protein specific anchorage-independent tumor cell models.
(§2) Five tumor cell lines were seeded at 600 cells/well (12-well plates) in 0.6 mL of 0.3% Noble agar in culture medium over a bottom agar layer (0.5% Noble agar in culture medium). The culture medium was Dulbecco's modified Eagle's medium (Nissui Pharmaceutical Co., Ltd., Tokyo, Japan), supplemented with 10% heat-inactivated calf serum (GIBCO, Grand Island, N.Y.). A 10 mM stock solution of inhibitor compound PD331 in DMSO was diluted with culture medium to 3× the final concentration and 0.6 mL of the diluted inhibitor solution was overlayed on each well. Controls contained the same amount of DMSO as inhibitor samples. Plates were incubated at 37° C. in 5% CO2 for 14 days. Colonies were counted by replacement of the overlaying medium with 0.6 mL of 2 mg/mL MTT in PBS, incubation for 30 min, and quantitation of scanned photographs. IC50 concentrations for each cell line are shown below in Table 3.

For assay [1], the system named is zH1 (H-ras-transformed NIH/3T3 mouse fibroblast). Briefly: Inhibition of anchorage-independent tumor cell growth, zH1. In kind it is cell-based. To be noted: NIH3T3, 336 h, zH1, 14 days, soft agar. The procedure:
as §1, §2

Another assay deals with T24. Briefly: Inhibition of anchorage-independent tumor cell growth, T24. To be noted: Homo sapiens, T-24, 336 h; T24, 14 days, soft agar. In kind it is cell-based. Here is the method: as §1, §2
Assay [2] deals with H-ras farnesylation in H-ras (61L) transformed NIH3T3 fibroblasts. Kind of assay: Inhibition of H-ras farnesylation in whole cells (Western blot). In kind it is cell-based, mouse. To be noted: Mus musculus, NIH3T3, 24 h, Table 2.
The next assay deals with MIApaca-2. Briefly: Inhibition of anchorage-independent tumor cell growth, MIApaca-2. In kind it is cell-based. To be noted: Homo sapiens, MIA PaCa-2, 336 h; MIApaca-2, 14 days, soft agar. Here is the method: as §1, §2
The next assay relates to HT1080. Briefly: Inhibition of anchorage-independent tumor cell growth, HT1080. To be noted: Homo sapiens, HT-1080, 336 h; HT1080, 14 days, soft agar. The format is cell-based. The procedure:
as §1, §2

In a further assay the target is T1, FTase (Bos taurus, UniProt P29702+P49355).
T1 construct: bovine brain by inference from the cited Moores et al. 1991
Kind of assay: Inhibition of FTase-mediated prenylation (in vitro prenylation assay). The format is biochemical. To be noted: Table 1; partially purified FTase, 3 μM recombinant H-ras, 440 nM [3H]FPP, 15 min 37° C. An excerpt:
(§3) Nanomolar concentrations of the indicated compounds were sufficient to inhibit farnesylation of ras proteins in vitro. For screening candidate compounds useful for the treatment of ras-associated tumors, the FTase assay is preferred. […] Substitutions which confer GGTase specificity as taught herein also produced potent inhibitors of GGTase.

For another assay, the target named is GGTase. Kind of assay: Inhibition of GGTase-mediated prenylation (in vitro prenylation assay). The format is biochemical. The conditions noted are these: Table 1; partially purified GGTase, 5 μM recombinant H-ras (61L, CAIL), 1 μM [3H] geranylgeranyl diphosphate.
Description: as §3

The subject of assay [3] is H-ras (61L) transformed NIH3T3 fibroblast tumors. Briefly: Inhibition of tumor xenograft in mice, Example D (PD331). In kind it is in vivo, mouse. The conditions noted are these: for T/C (%) Volume / Tumor Volume: day 14. The procedure:
Cells were harvested from exponential-phase maintenance cultures (T-225 cm^2 culture flasks, Corning Inc., Corning, N.Y.) with trypsin-EDTA (GIBCO), centrifuged at 160 ×g for 5 min, washed once with 10 mL cold Hank's balanced salt solution (HBSS, GIBCO), and resuspended at a concentration of 1×10^6 cells/mL. Five week old female athymic nude mice were obtained from SLC (3371-8, Kotoummachi, Hamamatsu-shi, Shizuoka 431-11, Japan) and maintained under pathogen-free conditions. […] Inhibitor compound PD331 was suspended in saline containing 2% Tween-80 in a total injection volume of 0.2 mL. Two dosage concentrations were prepared, 0.3 mg/mouse or 1.0 mg/mouse. Compound PD331 was subcutaneously injected daily at the site of tumor cell implantation for 5 consecutive days, starting approximately 8 h after the implantation (day 0). The control group was injected with vehicle only. Body weight and tumor dimensions were measured at days 7, 10, and 14. Tumor volume was estimated by the following calculation: tumor volume =(0.5)(length×width×width). At day 14, each mouse was euthanized with CO2 (g), and each tumor was excised and weighed. The statistical significance was estimated by the Student's T-test.

[4] abbreviates: 0.3 mg/mouse s.c. daily for 5 days.
Setting [5] is: 1.0 mg/mouse s.c. daily for 5 days.

The term IC50 denotes the concentration that inhibits the measured activity by half. As to `CSCC[C@H](NC(=O)C(/C=C\[C@@H](/C=C/[C@@H](N)CS)C(C)C)Cc1ccccc1)C(=O)O` (some centres unmarked) [PD331], the IC50 in the assay on Sw620 was found to be 22 µM; in assay [1] it was 0.6 µM; with T24, 0.3 µM; in assay [2] it was 0.4 µM; in the assay with MIApaca-2, 19 µM; with HT1080 it was 1.8 µM. The IC50 stood at 0.011 µM on FTase and 0.013 µM at GGTase. The “T/C (%) Volume” value in assay [3] (setting [4]) is 53.3%; in assay [3] (setting [5]) it was 16.5%. In addition, the Tumor Volume in [3] (setting [4]) is 871.28 ± 526.90 µL; in [3] (setting [5]), 269.55 ± 292.95 µL. Also, the “weight and volume of tumors versus control group” value in assay [3] (every concentration) was “both the weight and the volume of the tumors from the treated group were less than the weight and volume of tumors from the control group”. The “effect on H-ras tumor growth in mice” value in assay [3] (mouse, in vivo) is recorded as “has a significant effect on H-ras tumor growth in mice; also recorded: effectively inhibited the growth of ras-associated tumors in mice”.

Values taken from patent US5840918A, “Isoprenyl transferase inhibitors” (Eisai Co., Ltd., priority 1997, dated 1998).
